Source: article PMC6128562, “Evaluation of cytotoxicity features of antimicrobial peptides with potential to control bacterial diseases of citrus” (PLoS ONE, 2018)
Where no end group is shown, it is not given here.

Experiments:
[1] = test system: human erythrocytes; settings: cited from earlier work
Description: Ocellatin4 ([…]-NH(2)) is a cytolytic peptide obtained from skin secretion of the South American frog Leptodactylus ocellatus. The analogue of this peptide named as, Ocellatin4-analogue ([…]) has positive charge at its N-terminus (lysine residue), similarly to K^0-W^6-Hy-a1.

[2] = test system: Galleria mellonella larvae; assay: Toxicity in Galleria mellonella larvae; assay type: in vivo; settings: for Median (%survival): over Experiments 1 and 2; for survival percentages of larvae: at 64 and 128 μM
Protocol: The peptides citrus–amp1 and citrus–amp2 were selected for toxicity assay in G. mellonella. Larvae with 0.15 to 0.20 g were randomly selected for the experiments and were kept without food in Petri plates at 37°C in the dark for 24 h prior to use. Each larva was injected with 10 μL of peptides at 64 and 128 μM into the last proleg using a Hamilton micro-syringe. […] The larvae were incubated at 37°C and survival was evaluated daily for 7 days. Group of 8–9 larvae was used to each concentration of peptides and 10 μL of PBS was injected in the control group. Two independent experiments were performed.

[3] = test system: U87 MG cells; assay: Cytotoxicity in U87 MG cells (alamarBlue); assay type: cell-based, human; settings: concentrations of 1–128 μM, 24 h
Protocol: U87 MG, a human Glioblastoma cell line frequently used as a model for cytotoxicity evaluation was adopted in our study for the peptides citrus–amp1 and citrus–amp2. Cells were plated in 96 wells plate (5x10^4 cells per well), incubated overnight and maintained in a humidified atmosphere at 37°C and 5% CO2. After the incubation period, cells were treated with peptides varying from 1μM to 128 μM and then incubated for 24h. Untreated and cells treated with DMSO (dimethyl sulfoxide) were used as positive and negative control for the viability of U87 MG cells. Six replicates were done by each concentration.
Cytotoxicity was performed using alamarBlue® cell viability reagent, a cell health indicator, through the reduction of […] of living cells. Viable cells convert Resazurin (blue) to resorufin, a compound that emits red fluorescent light. Alamar Blue medium was prepared by mixing medium with alamarBlue solution (Thermo Ficher Scientific) in a ratio of 10:1. After treatment with the peptides for 24 h, the medium was discarded, and Alamar Blue medium (100 μL) was transferred to a 96-well microplate. The microplates were incubated with Alamar Blue at 37°C for 4 h, and absorbance was measured using Epoch2 Microplate Reader (Biotek) in 570 nm. Cell viability was calculated using the ratio of the absorbance between treated and untreated cells and the data were expressed as percentages. […]

[4] = test system: Sinorhizobium meliloti SEMIA 165; assay type: cell-based; settings: ND = higher than the concentrations evaluated; for MIC S. meliloti: microplate, inoculum 10^4 CFU/mL in PBS, peptide 1–64 μM, 595 nm, three replicates; for MBC S. meliloti: serial dilution, microdrop technique, 28°C three days
Description: (§1) Two important citrus pathogenic bacteria were addressed in our study: X.citri (isolate 306), the causal agent of citrus canker, and CaLas, causal agent of HLB. Since the latter cannot be cultivated in vitro, surrogates phylogenetically related to CaLas were used in the assays. The surrogates chosen were S. meliloti SEMIA 165 (= USDA 1002) and A. tumefaciens (GV3101/PMP90), provided by FEPAGRO (Fundação Estadual de Pesquisa Agropecuária) and by Dr. Janete Desidério, UNESP (Universidade Estadual Paulista, Jaboticabal, São Paulo, Brazil). The effect of the AMPs on Methylobacterium sp., an endophytic commonly found at citrus in Brazil and kindly provided by Dr. Wellington Luiz Araújo, Instituto de Ciências Biomédicas, Universidade de São Paulo, Brazil, was also assessed. Methylobacterium sp. and X.citri was cultured in NBY solid medium and then in NBY liquid medium according to Amaral et al. for 48 hours at 28°C and 180 rpm. S. meliloti and A. tumefaciens were grown in YM medium (Yeast Mannitol Medium) (0.5 g/L KH2PO4, 0.2 g/L MgSO4 7.H2O, 0.1g/L NaCl, 10 g/L mannitol, 0.5 g/L yeast extract, 9g/L agar, pH 6.8) and then in YM liquid medium for 48 hours at 28°C and 180 rpm. In addition to the in vitro assays, X.citri::GFP [35], obtained from Dr. Adrián A. Vojnov (Instituto de Ciencia y Tecnología Dr. Cesar Milstein, Fundación Pablo Cassará, Consejo Nacional de Investigaciones Científicas y Técnicas (CONICET), Buenos Aires / Argentina), was used for the in vivo assays.
(§2) Antimicrobial peptide activity was performed in vitro using a microliter plate assay (96 well cell culture cluster—Costar®3599). Fifty microliters of inoculum at 10^4 CFU/mL prepared in PBS buffer (Phosphate buffered saline) was mixed with 50 μL of the peptide diluted in distilled water filter sterilized (dH2O). The final concentration of peptide evaluated ranged from 1–64 μM, and hylin-a1 and PBS were used as positive and negative control for AMP, respectively. […] Three replicates were prepared for each concentration evaluated.
(§3) At the end of the growth incubation, minimum bactericidal concentration (MBC) for each organism was determined by serial dilution using the microdrop technique, as described elsewhere. The Petri dishes were maintained at 28°C for three days to obtain CFU/mL.

[5] = test system: tobacco leaves; settings: 24 hpi; leaves started to dry out 12 hpi; cited from earlier work
Protocol: The peptide Hylin-1 and PBS buffer were used as positive and negative controls of the phytotoxicity assay, respectively. At seven days post inoculation (7 dpi), visual evaluation was performed in detached leaves. […] Makovitzki et al. assessed the toxicity of peptide C14-KLLK in tobacco leaves.

[6] = test system: Xanthomonas citri subsp. citri (X.citri, isolate 306); assay type: cell-based; settings: ND = higher than the concentrations evaluated
Description: as §1, §2, §3

[7] = test system: Methylobacterium sp.; assay type: cell-based; settings: ND = higher than the concentrations evaluated
Description: as §1, §2, §3

[8] = 64 µM, Experiment 1, 7 days, n=8–9 larvae
[9] = 64 µM, Experiment 2, 7 days, n=8–9 larvae
[10] = 128 µM, Experiment 1, 7 days, n=8–9 larvae
[11] = 128 µM, Experiment 2, 7 days, n=8–9 larvae
[12] = 10 μL of 64 μM injected, 37°C, 7 days, mean±SD of two experiments, 8–9 larvae
[13] = 10 μL of 128 μM injected, 37°C, 7 days, mean±SD of two experiments, 8–9 larvae
[14] = microplate, inoculum 10^4 CFU/mL in PBS, peptide 1–64 μM, 595 nm, three replicates
[15] = serial dilution, microdrop technique, 28°C three days

Row | Substance | % survival [2, 8] [%] | % survival [2, 9] [%] | Median (%survival) ([2]; 64 µM) [%] | % survival [2, 10] [%] | % survival [2, 11] [%] | Median (%survival) ([2]; 128 µM) [%] | % survival [2, 12] [%] | % survival [2, 13] [%] | survival percentages of larvae [2] [%] | MIC S. meliloti [4] [µM] | MBC S. meliloti [4] [µM] | also measured
1 | GLLDFVTGVGKDIFAQLIKQI-NH(2) [ocellatin 4, cytolytic peptide from skin secretion of the frog Leptodactylus ocellatus] | – | – | – | – | – | – | – | – | – | – | – | activity on human erythrocytes at [1]: 14.3 mmol/L
2 | LESLASSAVRTANKARAKL [Citrus-amp2] | 100 | 75 | 87.5 | 100 | 87.5 | 93.8 | 87.50 ± 17.68 | 93.75 ± 8.84 | > 87 | 64 | 64 | viability percentages of cells [3]: > 70%
3 | mellittin | – | – | – | – | – | – | – | – | – | – | – | toxicity in tobacco leaves at the inoculation point [5]: necrosis
4 | IETFLKQLRSAANKIVGL [Citrus-amp1] | 88.9 | 88.9 | 88.9 | 100 | 88.9 | 94.5 | 88.89 ± 0 | 94.50 ± 7.85 | > 87 | – | – | –
5 | KIFGAIWPLALGALKNLIK [K^0-W^6-Hy-a1] | – | – | – | – | – | – | – | – | – | 4 | 62 | MIC X.ciri [6, 14]: 2 µM; MBC X.ciri [6, 15]: 2 µM; MIC Met sp. [7, 14]: 4 µM; MBC Met sp. [7, 15]: 8 µM
